The structures appear in SMILES notation.

Drawing on patent publication US7348440B2, “Mitotic kinesin inhibitors” (Merck & Co., Inc., priority 2002, dated 2008), this text covers IC50 for 13 compounds.

The first experiment deals with T1, human KSP motor domain (KSP(367H)) (Homo sapiens, UniProt P52732).
T1 construct: were used to amplify the motor domain and the neck linker region; made in house; host or cells: E. coli BL21 (DE3), pRSETa vector
T1 sequence (P52732 18-359 limits assumed): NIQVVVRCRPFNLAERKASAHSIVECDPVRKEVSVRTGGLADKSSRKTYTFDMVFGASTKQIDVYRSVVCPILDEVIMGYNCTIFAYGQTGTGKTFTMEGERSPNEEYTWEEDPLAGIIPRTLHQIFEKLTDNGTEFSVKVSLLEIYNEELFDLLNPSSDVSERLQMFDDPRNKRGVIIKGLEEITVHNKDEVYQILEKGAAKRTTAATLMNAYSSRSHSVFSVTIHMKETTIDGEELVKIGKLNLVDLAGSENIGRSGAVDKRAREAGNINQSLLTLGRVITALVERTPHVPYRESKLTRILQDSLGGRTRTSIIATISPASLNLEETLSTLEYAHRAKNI
The experiment can be described thus: Kinesin ATPase In Vitro Assay. In kind it is biochemical.
Conditions: not given
The protocol: I. Kinesin ATPase In Vitro Assay
The N-terminal primer 5′-[…] (SEQ.ID.NO.: 1) and the C-terminal primer 5′-[…] […] (SEQ.ID.NO.: 2) were used to amplify the motor domain and the neck linker region. The PCR products were digested with AseI and XhoI, ligated into the NdeI/XhoI digestion product of pRSETa (Invitrogen) and transformed into E. coli BL21 (DE3).
Cells were grown at 37° C. to an OD600 of 0.5. After cooling the culture to room temperature expression of KSP was induced with 100 μM IPTG and incubation was continued overnight. Cells were pelleted by centrifugation and washed once with ice-cold PBS. Pellets were flash-frozen and stored −80° C.
Cell pellets were thawed on ice and resuspended in lysis buffer (50 mM K-HEPES, pH 8.0, 250 mM KCl, 0.1% Tween, 10 mM imidazole, 0.5 mM Mg-ATP, 1 mM PMSF, 2 mM benzimidine, 1× complete protease inhibitor cocktail (Roche)). Cell suspensions were incubated with 1 mg/ml lysozyme and 5 mM β-mercaptoethanol on ice for 10 minutes, followed by sonication (3×30 sec). All subsequent procedures were performed at 4° C. Lysates were centrifuged at 40,000×g for 40 minutes. Supernatants were diluted and loaded onto an SP Sepharose column (Pharmacia, 5 ml cartridge) in buffer A (50 mM K-HEPES, pH 6.8, 1 mM MgCl2, 1 mM EGTA, 10 μM Mg-ATP, 1 mM DTT) and eluted with a 0 to 750 mM KCl gradient in buffer A. Fractions containing KSP were pooled and incubated with Ni-NTA resin (Qiagen) for one hour. The resin was washed three times with buffer B (Lysis buffer minus PMSF and protease inhibitor cocktail), followed by three 15-minute incubations and washes with buffer B. Finally, the resin was incubated and washed for 15 minutes three times with buffer C (same as buffer B except for pH 6.0) and poured into a column. KSP was eluted with elution buffer (identical to buffer B except for 150 mM KCl and 250 mM imidazole). KSP-containing fractions were pooled, made 10% in sucrose, and stored at −80° C.
Microtubules are prepared from tubulin isolated from bovine brain. Purified tubulin (>97% MAP-free) at 1 mg/ml is polymerized at 37° C. in the presence of 10 μM paclitaxel, 1 mM DTT, 1 mM GTP in BRB80 buffer (80 mM K-PIPES, 1 mM EGTA, 1 mM MgCl2 at pH 6.8). The resulting microtubules are separated from non-polymerized tubulin by ultracentrifugation and removal of the supernatant. The pellet, containing the microtubules, is gently resuspended in 10 μM paclitaxel, 1 mM DTT, 50 μg/ml ampicillin, and 5 μg/ml chloramphenicol in BRB80.
The kinesin motor domain is incubated with microtubules, 1 mM ATP (1:1 MgCl2: Na-ATP), and compound at 23° C. in buffer containing 80 mM K-HEPES (pH 7.0), 1 mM EGTA, 1 mM DTT, 1 mM MgCl2, and 50 mM KCl. The reaction is terminated by a 2-10 fold dilution with a final buffer composition of 80 mM HEPES and 50 mM EDTA (or, alternately, with a 1:1 addition of reaction volume to stop buffer(1.8M KCl and 50 mM EDTA)). Free phosphate from the ATP hydrolysis reaction is measured via a quinaldine red/ammonium molybdate assay by adding a 1.5 times volume of quench C (e.g., to a mixture of 40 μl reaction volume+40 μl stop buffer is then added 120 μl quench C). […] Quench C is a 2:1 ratio of quench A:quench B The reaction is incubated for 5-10 minutes at 23° C., and the absorbance of the phospho-molybdate complex is measured at 540 nm.
A word on the IC50: it is the concentration needed to halve the response being measured. Take `CN(C(=O)N1CC(c2cc(F)ccc2F)=C[C@H]1c1ccccc1)C1CCNCC1` [18-4, (2S)-4-(2,5-Difluorophenyl)-N-methyl-2-phenyl-N-piperidin-4-yl-2,5-dihydro-1H-pyrrole-1-carboxamide]: the IC50 is ≤ 50 µM.

The same experiment, now with this note: kinesin motor domain incubated with microtubules, 1 mM ATP and compound at 23° C.; free phosphate by quinaldine red/ammonium molybdate, absorbance 540 nm; read-out: IC50.
As to `CN(C)C(=O)N1CC(c2cc(F)ccc2Cl)=CC1c1ccccc1` (stereo not shown) [1-6, 4-(2-chloro-5-fluorophenyl)-N,N-dimethyl-2-phenyl-2,5-dihydro-1H-pyrrole-1-carboxamide], the IC50 was ≤ 50 µM.
Still for that read-out and setting: under `CCS(=O)(=O)C(C)CN1CC(c2cc(F)ccc2F)=C[C@H]1c1ccccc1` (single isomer, unassigned) [38-1] stands ≤ 50 µM; under `CN(C)CCS(=O)(=O)N1CC(c2cc(F)ccc2F)=CC1c1ccccc1` (stereo not shown) [8-2, 2-{[4-(2,5-difluorophenyl)-2-phenyl-2,5-dihydro-1H-pyrrol-1-yl]sulfonyl}-N,N-dimethylethanamine], ≤ 50 µM.
On the same count and under the same terms, under `CN(C)C(=O)N1CC(c2cc(C(F)(F)F)ccc2F)C=C1c1ccccc1` (stereo not shown) [3-2, 3-[2-fluoro-5-(trifluoromethyl)phenyl]-N,N-dimethyl-5-phenyl-2,3-dihydro-1H-pyrrole-1-carboxamide] stands ≤ 50 µM; under `[C-]#[N+]c1ccc(F)c(C2=CC(c3ccccc3)N(C(=O)N(C)C)C2)c1` (stereo not shown) [13-1, 4-(2-fluoro-5-isocyanophenyl)-N,N-dimethyl-2-phenyl-2,5-dihydro-1H-pyrrole-1-carboxamide], ≤ 50 µM; under `NCCS(=O)(=O)N1CC(c2cc(F)ccc2F)=CC1c1ccccc1` (stereo not shown) [7-2, 2-{[4-(2,5-difluorophenyl)-2-phenyl-2,5-dihydro-1H-pyrrol-1-yl]sulfonyl}ethanamine], ≤ 50 µM.
On the same count and under the same terms, under `CN(C(=O)N1CC(c2cc(Cl)ccc2F)=C[C@H]1c1ccccc1)[C@@H]1CCNC1` [18b-8, (2S)-4-(5-Chloro-2-fluorophenyl)-N-methyl-2-phenyl-N-[(3R)-pyrrolidin-3-yl]-2,5-dihydro-1H-pyrrole-1-carboxamide] stands ≤ 50 µM.
For the compound `CC(C)(O)C(=O)N1CC(c2cc(F)ccc2F)=CC1c1ccccc1` (stereo not shown) [11-1, 1-[4-(2,5-difluorophenyl)-2-phenyl-2,5-dihydro-1H-pyrrol-1-yl]-2-methyl-1-oxopropan-2-ol], the IC50 was ≤ 50 µM.
Still for that read-out and setting: under `CC(C)(C)OC(=O)N1CC(OS(=O)(=O)C(F)(F)F)=C[C@H]1c1ccccc1` [compound 54, (2S)-tert-butyl 2-phenyl-4-{[(trifluoromethyl)sulfonyl]oxy}-2,5-dihydro-1H-pyrrole-1-carboxylate] stands ≤ 50 µM; under `CC(C)(N)C(=O)N1CC(c2cc(F)ccc2F)=CC1c1ccccc1` (stereo not shown) [12-1, 1-[4-(2,5-difluorophenyl)-2-phenyl-2,5-dihydro-1H-pyrrol-1-yl]-2-methyl-1-oxopropan-2-amine], ≤ 50 µM.
On the same count and under the same terms, under `CN(CC1CCNCC1)C(=O)N1CC(c2cc(F)ccc2F)=C[C@H]1c1ccccc1` [18a-6, (2S)-4-(2,5-Difluorophenyl)-N-methyl-2-phenyl-N-(piperidin-4-ylmethyl)-2,5-dihydro-1H-pyrrole-1-carboxamide] stands ≤ 50 µM.
On the same count and under the same terms, under `CC(=O)N1CC(c2cc(F)ccc2F)=CC1c1ccccc1` (stereo not shown) [9-1, 1-acetyl-4-(2,5-difluorophenyl)-2-phenyl-2,5-dihydro-1H-pyrrole] stands ≤ 50 µM.
